Test results published in patent US20240209014A1, “NOVEL SPINOSYN PRODRUGS” (Acies Bio d.o.o., priority 2021, published 2024).
Where two headings read alike, the source gives them in different places.

Assays:
[1] = test system: honey bees (Apis melifera carnica, Pollman 1879); experiment: Single dose acute oral toxicity test on adult worker honey bees; assay type: in vivo
Description: Toxicity of the compounds of this invention towards honey bees (Apis melifera carnica, Pollman 1879) was assessed in comparison with commercially available samples of spinosad (LGC (Dr. Ehrenstorfer); Product code: DRE-C16972830) and the naturally produced compound butenyl spinosyn alpha 1. Solutions of spinosyn compounds were prepared in 100 mM ammonium acetate, pH=5, and later diluted in 50% (500 g/L) sucrose solution in water to final concentrations. Two final concentrations were used for each compound, 7.76 μmol/L and 15.53 μmol/L.
Single dose acute oral toxicity tests were conducted on adult worker bees according to previously described standard methods (Medrzycki at el., (2013)). Each compound and condition were tested in two parallels. Briefly, each parallel experiment consisted of 5 cages with 20 honey bees per cage. […] After uptake of the solutions honey bees were supplied with standard 50% sucrose solution and observed at 24 h and 48 h and the number of dead and live bees was estimated.
Ammonium acetate solution with pH 5 was used as the negative control.

[2] = Stability of J1Aa and J7a at different pH values (LC-MS); assay type: physicochemical
Description: Stability of compounds J1Aa and J7a was evaluated at different pH values. Differential stability/conversion to the active ingredient is expected to result in condition-specific activation and thereby to higher specificity towards target pests.
Stock solutions of the compounds were prepared at concentration of 0.1 mol/L. 10 μL of the stock solutions were transferred to 0.75 ml of the buffer solutions with pH values of 4, 5, 9 and 11. […] After specified times samples were analyzed using LC-MS. The compounds J1Aa and J7a and the active compound spinosyn A were quantified. It is seen that the two compounds are converted to the active form preferably in alkaline conditions.

[3] = test system: larvae of Ostrinia nubilialis (development stage L1); experiment: Insecticide efficacy, corn leaf dip, Henderson-Tilton method; assay type: in vivo; settings: for % efficacy (Henderson-Tilton): Ostrinia, foliar
Description: Insecticide activities of the compounds of this invention were assessed in comparison with commercially available samples of spinosad (LGC (Dr. Ehrenstorfer); Product code: DRE-C16972830) and spinetoram (LGC (Dr. Ehrenstorfer); Product code: DRE-C16972770). Solutions of spinosyn compounds were prepared by adding 0.05% Tween 80, lowering pH to 5.95 and sonicating. Two concentrations of each compound were used, 0.1 μg/ml and 0.3 μg/mL, with each condition tested in four parallels.
Freshly collected corn leaves were dipped into the prepared solutions. After dipping leaves were left to dry at room temperature for 1 hour. Each dry leaf was then infested with 4 larvae of Ostrinia nubilialis (development stage L1), and the experimental device was incubated at 21° C.-23° C. for 24 h in order to optimize insect development. At three timings post infestation (1 day, 3 days and 6 days), the insecticide efficacy is evaluated from the number of living larvae using the Henderson-Tilton method. Untreated control was integrated for normalization and validation of larvae health.

Kinetic solubility assay = assay type: physicochemical; settings: 25 °C, kinetic from dmso stock, dose conc 200 μM, 25±2° C.
Description: Solubility of the compounds of the invention was assessed using kinetic solubility assay and compared to solubility of butenyl spinosyn. Stock solutions of spinosyn compounds were prepared in DMSO at mM concentration). 10 uL of the stock solutions were added into 490 of in K.S. 5.4 buffer of pH 5.4 (80 mM phosphoric acid, acetic acid, boric acid buffer, adjusted the pH to pH 5.4 with 1 N HCl and 1N NaOH) or K.S. 7.4 buffer with pH of 7.4 (80 mM phosphoric acid, acetic acid, boric acid buffer, adjusted the pH to pH 7.4 with 1 N HCl and 1N NaOH). The solutions were incubated with shaking at room […] temperature (25±2° C.) for 24 hours. 200 uL of each solution were then transferred into a new MultiScreen filter plate (Membrane of polycarbonate) and filtered by millipore vacuum manifold, and the filtrate was collected. The concentrtions of tested compounds in the filtered samples were analyzed by HPLC analysis calibrated by a standard curve generated by injection of 3 standard solutions of the relevant compound with concentrations of 1, 20, 200 μM.

[4] = Stability of J1A, J1B and J7 at different pH values (LC-MS); assay type: physicochemical
Description: Stability of compounds J1A, J1B and J7 was evaluated at different pH values. Differential stability/conversion to the active ingredient is expected to result in condition-specific activation and thereby to higher specificity towards target pests.
Stock solutions of the compounds were prepared at concentration of 0.1 mol/L. 10 μL of the stock solutions were transferred to 0.75 ml of the buffer solutions with pH values of 4, 5, 9 and 11. The resulting solutions were incubated for 10 minutes and 3 and 24 h. After specified times samples were analyzed using LC-MS. The compounds J1A, J1B, J7 and the active compound butenyl spinosyn were quantified. It is seen that the three compounds are converted to the active form preferably in alkaline conditions.

[5] = single oral dose 0.078 nmol/bee, 24 h after application
[6] = single oral dose 0.078 nmol/bee, 48 h after application
[7] = single oral dose 0.155 nmol/bee, 24 h after application
[8] = single oral dose 0.155 nmol/bee, 48 h after application

CC[C@H]1CCC[C@H](OC2CCC([N+](C)(C)COC(=O)C(C)(C)C)C(C)O2)[C@@H](C)C(=O)C2=C[C@@H]3[C@@H](C=C[C@@H]4C[C@@H](OC5OC(C)C(OC)C(OC)C5OC)C[C@@H]34)[C@@H]2CC(=O)O1 (stereo partly drawn) [Compound J1Aa]
% of surviving honey bees [1, 5]: 99%
% of surviving honey bees [1, 6]: 82%
% of surviving honey bees [1, 7]: 91%
% of surviving honey bees [1, 8]: 42%
Compound (J1Aa/J7a) Area % remaining ([2]; buffer pH 4, 0.16 h): 94.2%
SPN Area % (active spinosyn A released) ([2]; buffer pH 4, 0.16 h): 5.8%
Compound (J1Aa/J7a) Area % remaining ([2]; buffer pH 4, 6 h): 92.9%
SPN Area % (active spinosyn A released) ([2]; buffer pH 4, 6 h): 7.1%
Compound (J1Aa/J7a) Area % remaining ([2]; buffer pH 4, 12 h): 93.8%
SPN Area % (active spinosyn A released) ([2]; buffer pH 4, 12 h): 6.2%
Compound (J1Aa/J7a) Area % remaining ([2]; buffer pH 4, 24 h): 93.5%
SPN Area % (active spinosyn A released) ([2]; buffer pH 4, 24 h): 6.5%
Compound (J1Aa/J7a) Area % remaining ([2]; buffer pH 5, 0.16 h): 94.1%
SPN Area % (active spinosyn A released) ([2]; buffer pH 5, 0.16 h): 5.9%
Compound (J1Aa/J7a) Area % remaining ([2]; buffer pH 5, 6 h): 91.0%
SPN Area % (active spinosyn A released) ([2]; buffer pH 5, 6 h): 9.0%
Compound (J1Aa/J7a) Area % remaining ([2]; buffer pH 5, 12 h): 92.0%
SPN Area % (active spinosyn A released) ([2]; buffer pH 5, 12 h): 8.0%
Compound (J1Aa/J7a) Area % remaining ([2]; buffer pH 5, 24 h): 90.4%
SPN Area % (active spinosyn A released) ([2]; buffer pH 5, 24 h): 9.6%
Compound (J1Aa/J7a) Area % remaining ([2]; buffer pH 9, 0.16 h): 33.1%
SPN Area % (active spinosyn A released) ([2]; buffer pH 9, 0.16 h): 66.9%
Compound (J1Aa/J7a) Area % remaining ([2]; buffer pH 9, 6 h): 0.0%
SPN Area % (active spinosyn A released) ([2]; buffer pH 9, 6 h): 100.0%
Compound (J1Aa/J7a) Area % remaining ([2]; buffer pH 11, 0.16 h): 0.0%
SPN Area % (active spinosyn A released) ([2]; buffer pH 11, 0.16 h): 100.0%

CC/C=C/[C@H]1CCC[C@H](OC2CCC([N+](C)(C)COC(=O)OC(C)C)C(C)O2)[C@@H](C)C(=O)C2=C[C@@H]3[C@@H](C=C[C@@H]4C[C@@H](OC5OC(C)C(OC)C(OC)C5OC)C[C@@H]34)[C@@H]2CC(=O)O1 (stereo partly drawn) [Compound J7]
% of surviving honey bees [1, 5]: 96%
% of surviving honey bees [1, 6]: 94%
% of surviving honey bees [1, 7]: 85%
% of surviving honey bees [1, 8]: 63%
insecticidal activity on Ostrinia nubilialis larvae (in words) ([3]; 0.1 and 0.3 μg/mL, leaf dip): extremely potent insecticidal activity
% efficacy (Henderson-Tilton) ([3]; 24 h, read-out: % Efficacy, dose 0.1 μg a.i./ml, 1 day post infestation): 31%
% efficacy (Henderson-Tilton) ([3]; 24 h, read-out: % Efficacy, dose 0.3 μg a.i./ml, 1 day post infestation): 44%
% efficacy (Henderson-Tilton) ([3]; 72 h, read-out: % Efficacy, dose 0.1 μg a.i./ml, 3 days post infestation): 73%
% efficacy (Henderson-Tilton) ([3]; 72 h, read-out: % Efficacy, dose 0.3 μg a.i./ml, 3 days post infestation): 91%
% efficacy (Henderson-Tilton) ([3]; 144 h, read-out: % Efficacy, dose 0.1 μg a.i./ml, 6 days post infestation): 91%
% efficacy (Henderson-Tilton) ([3]; 144 h, read-out: % Efficacy, dose 0.3 μg a.i./ml, 6 days post infestation): 100%
solubility kinetic at 24 h (Kinetic solubility assay; pH 5.4, aqueous buffer, K.S. 5.4 buffer, read-out: Kinetic Solubility pH = 5.4): 192 µM
solubility kinetic at 24 h (Kinetic solubility assay; pH 7.4, aqueous buffer, K.S. 7.4 buffer, read-out: Kinetic Solubility pH = 7.4): 145 µM
BuSPN Area % (active butenyl spinosyn released) ([4]; buffer pH 4, 0.16 h): 0.0%
Compound (J1A/J1B/J7) Area % remaining ([4]; buffer pH 4, 0.16 h): 19.2%
BuSPN Area % (active butenyl spinosyn released) ([4]; buffer pH 4, 3 h): 0.0%
Compound (J1A/J1B/J7) Area % remaining ([4]; buffer pH 4, 3 h): 4.1%
BuSPN Area % (active butenyl spinosyn released) ([4]; buffer pH 4, 24 h): 0.0%
Compound (J1A/J1B/J7) Area % remaining ([4]; buffer pH 4, 24 h): 3.8%
BuSPN Area % (active butenyl spinosyn released) ([4]; buffer pH 5, 0.16 h): 0.2%
Compound (J1A/J1B/J7) Area % remaining ([4]; buffer pH 5, 0.16 h): 99.2%
BuSPN Area % (active butenyl spinosyn released) ([4]; buffer pH 5, 3 h): 0.3%
Compound (J1A/J1B/J7) Area % remaining ([4]; buffer pH 5, 3 h): 99.7%
BuSPN Area % (active butenyl spinosyn released) ([4]; buffer pH 5, 24 h): 0.5%
Compound (J1A/J1B/J7) Area % remaining ([4]; buffer pH 5, 24 h): 99.2%
BuSPN Area % (active butenyl spinosyn released) ([4]; buffer pH 9, 0.16 h): 44.4%
Compound (J1A/J1B/J7) Area % remaining ([4]; buffer pH 9, 0.16 h): 54.2%
BuSPN Area % (active butenyl spinosyn released) ([4]; buffer pH 9, 3 h): 90.8%
Compound (J1A/J1B/J7) Area % remaining ([4]; buffer pH 9, 3 h): 7.6%
BuSPN Area % (active butenyl spinosyn released) ([4]; buffer pH 9, 24 h): 93.8%
Compound (J1A/J1B/J7) Area % remaining ([4]; buffer pH 9, 24 h): 0.6%
BuSPN Area % (active butenyl spinosyn released) ([4]; buffer pH 11, 0.16 h): 93.1%
Compound (J1A/J1B/J7) Area % remaining ([4]; buffer pH 11, 0.16 h): 6.7%
BuSPN Area % (active butenyl spinosyn released) ([4]; buffer pH 11, 3 h): 99.8%
Compound (J1A/J1B/J7) Area % remaining ([4]; buffer pH 11, 3 h): 0.0%
BuSPN Area % (active butenyl spinosyn released) ([4]; buffer pH 11, 24 h): 99.4%
Compound (J1A/J1B/J7) Area % remaining ([4]; buffer pH 11, 24 h): 0.0%
